Results taken from ChEMBL document CHEMBL2073858, “Cloning and characterization of a pH-sensing regulatory factor that modulates transport activity of the human H+/peptide cotransporter, PEPT1” (Biochem Biophys Res Commun, 1997).
Square brackets hold non-standard residues; d marks the D form. Peptide text beside a SMILES is read from it. Sar = CNCC(=O)O

Molecular target: T1, Solute carrier family 15 member 1 (Homo sapiens) (UniProt P46059)
T1 sequence (whole entry): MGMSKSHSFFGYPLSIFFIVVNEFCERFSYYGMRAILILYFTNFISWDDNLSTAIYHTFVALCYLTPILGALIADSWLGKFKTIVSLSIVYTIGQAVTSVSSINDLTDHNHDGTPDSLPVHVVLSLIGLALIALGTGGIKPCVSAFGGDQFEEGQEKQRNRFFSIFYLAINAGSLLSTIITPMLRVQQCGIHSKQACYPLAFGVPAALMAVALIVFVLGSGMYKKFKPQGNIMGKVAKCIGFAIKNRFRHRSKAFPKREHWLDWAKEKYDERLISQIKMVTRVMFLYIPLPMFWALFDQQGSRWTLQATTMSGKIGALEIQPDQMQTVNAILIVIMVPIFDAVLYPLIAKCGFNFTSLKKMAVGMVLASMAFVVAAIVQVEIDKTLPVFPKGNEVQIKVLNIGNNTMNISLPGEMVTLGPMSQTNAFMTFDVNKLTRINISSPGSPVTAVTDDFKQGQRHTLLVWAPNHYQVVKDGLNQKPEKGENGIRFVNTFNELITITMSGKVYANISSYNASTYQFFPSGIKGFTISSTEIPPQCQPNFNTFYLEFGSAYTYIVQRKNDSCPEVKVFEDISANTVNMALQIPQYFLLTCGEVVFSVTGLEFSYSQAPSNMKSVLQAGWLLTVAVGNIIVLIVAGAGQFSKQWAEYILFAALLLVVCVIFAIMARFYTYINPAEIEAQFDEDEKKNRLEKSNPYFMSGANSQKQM
Assay: TP_TRANSPORTER: uptake in Xenopus laevis oocytes
Type: functional, cell-based
Conditions: Oocyte

**Q.** `CN(CC(=O)O)C(=O)CN` (H-Gly-[Sar]-OH) was tested. Which Activity did it give?
**A.** substrate [+]
